Among the data in patent US20120165331A1, “Di/tri-aza-spiro-C9-C11alkanes” (priority 2010, published 2012) are Ki and inhibition values, retold here.

For one assay, the target named is T1, human orexin 1 receptor (Homo sapiens, UniProt O43613).
T1 construct: expressed in transfected cells
T1 sequence (O43613 1-425): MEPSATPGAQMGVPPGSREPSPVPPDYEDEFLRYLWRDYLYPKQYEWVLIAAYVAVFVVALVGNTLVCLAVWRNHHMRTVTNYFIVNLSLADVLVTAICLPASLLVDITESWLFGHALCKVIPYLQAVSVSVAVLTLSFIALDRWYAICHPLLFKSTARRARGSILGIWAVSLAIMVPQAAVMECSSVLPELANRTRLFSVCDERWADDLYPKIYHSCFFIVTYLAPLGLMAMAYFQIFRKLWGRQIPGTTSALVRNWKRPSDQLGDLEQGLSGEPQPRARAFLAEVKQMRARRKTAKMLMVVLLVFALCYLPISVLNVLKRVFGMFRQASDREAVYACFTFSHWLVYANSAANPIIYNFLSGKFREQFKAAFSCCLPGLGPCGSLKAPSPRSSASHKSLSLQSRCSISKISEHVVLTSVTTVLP
Put plainly: Calcium accumulation in cells (FLIPR), antagonism of orexin A, human orexin 1 receptor. Format: cell-based. To be noted: for Ki: calcium accumulation, antagonism of orexin A, Cheng-Prusoff corrected, read-out: FLIPR hOx1R Ki; for inhibition at 10 µM: measured at a concentration of 10 μM of compound, read-out: FLIPR hOx1R % inhibition.

The target in a further assay is T2, human orexin 2 receptor (Homo sapiens, UniProt O43614).
T2 construct: expressed in transfected cells
T2 sequence (O43614 1-444): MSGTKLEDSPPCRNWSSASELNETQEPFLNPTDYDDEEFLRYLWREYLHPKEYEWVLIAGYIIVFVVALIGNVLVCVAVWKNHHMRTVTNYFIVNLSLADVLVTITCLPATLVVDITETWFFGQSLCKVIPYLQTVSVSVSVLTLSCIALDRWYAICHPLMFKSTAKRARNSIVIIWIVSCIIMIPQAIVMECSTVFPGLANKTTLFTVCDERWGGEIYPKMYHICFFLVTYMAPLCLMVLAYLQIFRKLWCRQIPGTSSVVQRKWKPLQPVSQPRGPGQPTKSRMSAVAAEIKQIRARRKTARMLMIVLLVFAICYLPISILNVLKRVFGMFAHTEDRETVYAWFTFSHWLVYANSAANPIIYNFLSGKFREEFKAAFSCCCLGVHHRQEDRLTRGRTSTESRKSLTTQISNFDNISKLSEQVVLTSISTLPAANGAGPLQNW
Put plainly: Calcium accumulation in cells (FLIPR), antagonism of orexin A, human orexin 2 receptor. To be noted: for inhibition at 10 µM: measured at a concentration of 10 μM of compound, read-out: FLIPR hOx2R % inhibition; for Ki: calcium accumulation, antagonism of orexin A, Cheng-Prusoff corrected, read-out: FLIPR hOx2R Ki. Format: cell-based.

Regarding `O=C1COCC2(CCN(c3cnc4ccccc4n3)CC2)N1Cc1cccc(-c2cccnc2)c1` [Example 8.12, 1-(3-(Pyridin-3-yl)benzyl)-9-(quinoxalin-2-yl)-4-oxa-1,9-diazaspiro[5.5]undecan-2-one], the Ki on human orexin 1 receptor stood at 232 nM. Besides, at human orexin 2 receptor, the inhibition at 10 µM stood at 30%.
For the molecule `COc1ccnc(N2CCC3(CC2)OCCN(Cc2c[nH]c4ccccc24)C3=O)n1` [Example 2.5, 4-((1H-Indol-3-yl)methyl)-9-(4-methoxypyrimidin-2-yl)-1-oxa-4,9-diazaspiro[5.5]undecan-5-one], the Ki is 1550 nM on human orexin 1 receptor and 61 nM at human orexin 2 receptor.
The matching figures for `O=C1N(Cc2ccccc2-c2ccccc2)CCC12CCN(c1cnc3ccccc3n1)CC2` [Example 3.6, 2-(biphenyl-2-ylmethyl)-8-(quinoxalin-2-yl)-2,8-diazaspiro[4.5]decan-1-one]: 1630 nM and 784 nM.
Take `COc1cc(C)nc(N2CCC3(CCN(Cc4nn(C)nc4Br)C3=O)C2)n1` (centres unmarked) [Example 5.46, 2-((5-bromo-2-methyl-2H-1,2,3-triazol-4-yl)methyl)-7-(4-methoxy-6-methylpyrimidin-2-yl)-2,7-diazaspiro[4.4]nonan-1-one]: the values for the inhibition at 10 µM on human orexin 1 receptor and on human orexin 2 receptor were less than 10% and 21%, respectively.
Consider `Cc1cc(C)nc(N2CCC3(CC2)OCCN(Cc2nnn(C)c2-c2ccccc2)C3=O)n1` [Example 2.16, 9-(4,6-Dimethylpyrimidin-2-yl)-4-((1-methyl-5-phenyl-1H-1,2,3-triazol-4-yl)methyl)-1-oxa-4,9-diazaspiro[5.5]undecan-5-one], for which the inhibition at 10 µM at human orexin 1 receptor was found to be 16%; at human orexin 2 receptor, 27%.
As for `Cc1cc(C)nc(N2CCC3(CC2)OCCN(Cc2nocc2-c2ccccc2)C3=O)n1` [Example 2.25, 9-(4,6-dimethylpyrimidin-2-yl)-4-((4-phenylisoxazol-3-yl)methyl)-1-oxa-4,9-diazaspiro[5.5]undecan-5-one], the Ki was 2680 nM at human orexin 1 receptor and 374 nM on human orexin 2 receptor.
As for `CCc1ccnc(N2CCC3(CC2)OCCN(Cc2c[nH]c4ccccc24)C3=O)n1` [Example 2.22, 4-((1H-indol-3-yl)methyl)-9-(4-ethylpyrimidin-2-yl)-1-oxa-4,9-diazaspiro[5.5]undecan-5-one], the results for the Ki at human orexin 1 receptor and at human orexin 2 receptor were 2780 nM and 251 nM, respectively.
The matching figures for `O=C1N(Cc2c[nH]c3ccccc23)CCC12CCN(c1ccnc(-n3ccnc3)n1)C2` (centres unmarked) [Example 5.19, 7-(2-(1H-imidazol-1-yl)pyrimidin-4-yl)-2-((1H-indol-3-yl)methyl)-2,7-diazaspiro[4.4]nonan-1-one]: 1190 nM and 665 nM.
The matching figures for `O=C1N(Cc2c[nH]c3ccccc23)CCC12CCN(c1cc(N3CCCC3)ncn1)C2` (centres unmarked) [Example 5.35, 2-((1H-indol-3-yl)methyl)-7-(6-(pyrrolidin-1-yl)pyrimidin-4-yl)-2,7-diazaspiro[4.4]nonan-1-one]: 1770 nM and 2720 nM.
The matching figures for `O=C1N(Cc2c[nH]c3ccccc23)CCC12CCN(c1nc3ccccc3[nH]1)CC2` [Example 3.12, 8-(1H-Benzoimidazol-2-yl)-2-(1H-indol-3-ylmethyl)-2,8-diaza-spiro[4.5]decan-1-one]: 4970 nM and 376 nM.
With `Cc1cc(C)nc(N2CCC3(CC2)NCCN(Cc2conc2-c2ccccc2)C3=O)n1` [Example 1.82, 9-(4,6-dimethyl-pyrimidin-2-yl)-4-((3-phenyl-isoxazol-4-yl)methyl)-1,4,9-triazaspiro[5.5] undecan-5-one], the inhibition at 10 µM at human orexin 1 receptor came to 57%. Besides, at human orexin 2 receptor, the Ki came out at 655 nM.
For `Cc1cc(C)nc(N2CCC3(CC2)NCCN(Cc2nn(C)cc2-c2cccc(-c4nnc(C)o4)c2)C3=O)n1` [Example 1.59, 9-(4,6-Dimethyl-pyrimidin-2-yl)-4-((1-methyl-4-(3-(5-methyl-1,3,4-oxadiazol-2-yl)phenyl)-1H-pyrazol-3-yl)methyl)-1,4,9-triazaspiro[5.5] undecan-5-one], the inhibition at 10 µM on human orexin 1 receptor came out at 37%. Besides, on human orexin 2 receptor, the Ki worked out at 252 nM.
Regarding `Cc1cc(C)nc(N2CCC3(CC2)OCCN(Cc2ccccc2-c2ncco2)C3=O)n1` [Example 2.9, 9-(4,6-Dimethylpyrimidin-2-yl)-4-(2-(oxazol-2-yl)benzyl)-1-oxa-4,9-diazaspiro[5.5]undecan-5-one], the inhibition at 10 µM on human orexin 1 receptor came to 42%. The Ki on human orexin 2 receptor was found to be 659 nM.
The matching figures for `COc1ccnc(N2CC[C@@]3(CCN(Cc4c[nH]c5ccccc45)C3=O)C2)n1` [Example 5.2, (R)-2-((1H-indol-3-yl)methyl)-7-(4-methoxypyrimidin-2-yl)-2,7-diazaspiro[4.4]nonan-1-one]: 49% and 1260 nM.
In the case of `Cc1cnc(N2CCC3(CC2)OCCN(Cc2c[nH]c4ccccc24)C3=O)nc1C` [Example 2.24, 4-((1H-indol-3-yl)methyl)-9-(4,5-dimethylpyrimidin-2-yl)-1-oxa-4,9-diazaspiro[5.5]undecan-5-one], the values for the Ki at human orexin 1 receptor and on human orexin 2 receptor were 1650 nM and 182 nM, respectively.
As to `Cc1cncc(N2CCC3(CCC(=O)N3Cc3cccc4[nH]ccc34)CC2)n1` [Example 8.2, 1-((1H-Indol-4-yl)methyl)-8-(6-methylpyrazin-2-yl)-1,8-diazaspiro[4.5]decan-2-one], the inhibition at 10 µM at human orexin 1 receptor was 12%. Also, the Ki at human orexin 2 receptor was found to be 133 nM.
Turning to `N#Cc1ccnc(N2CCC3(CCN(Cc4c[nH]c5ccccc45)C3=O)CC2)c1` [Example 3.3, 2-(2-((1H-Indol-3-yl)methyl)-1-oxo-2,8-diazaspiro[4.5]decan-8-yl)isonicotinonitrile], the inhibition at 10 µM on human orexin 1 receptor was 27%. The Ki at human orexin 2 receptor came out at 496 nM.
For the molecule `Cc1cc(C)nc(N2CCC3(CC2)C(=O)N(Cc2c[nH]c4ccccc24)CCN3C)n1` [Example 1.2, 4-((1H-indol-3-yl)methyl)-9-(4,6-dimethylpyrimidin-2-yl)-1-methyl-1,4,9-triazaspiro[5.5]undecan-5-one], the Ki at human orexin 1 receptor amounted to 3650 nM; at human orexin 2 receptor it was 449 nM.
In the case of `Cc1nc(N2CCOCC2)cc(N2CCC3(CCN(Cc4c[nH]c5ccccc45)C3=O)C2)n1` (centres unmarked) [Example 5.26, 2-((1H-indol-3-yl)methyl)-7-(2-methyl-6-morpholinopyrimidin-4-yl)-2,7-diazaspiro[4.4]nonan-1-one], the results for the inhibition at 10 µM on human orexin 1 receptor and at human orexin 2 receptor were 37% and 47%, respectively.
Take `Cc1ccnc(N2CCC3(CCN(Cc4c[nH]c5ccccc45)C3=O)CC2)n1` [Example 3.5, 2-((1H-Indol-3-yl)methyl)-8-(4-methylpyrimidin-2-yl)-2,8-diazaspiro[4.5]decan-1-one]: the inhibition at 10 µM on human orexin 1 receptor worked out at 25%. For the same molecule, the Ki at human orexin 2 receptor came to 296 nM.
The matching figures for `COc1cccc(-c2oc(C)nc2CN2CCNC3(CCN(c4nccc(C)n4)CC3)C2=O)c1` [Example 1.15, 4-((5-(3-Methoxyphenyl)-2-methyloxazol-4-yl)methyl)-9-(4-methylpyrimidin-2-yl)-1,4,9-triazaspiro[5.5] undecan-5-one]: 44% and 107 nM.
For `Cn1ccnc1-c1ccnc(N2CCC3(CCN(Cc4c[nH]c5ccccc45)C3=O)C2)n1` (centres unmarked) [Example 5.22, 2-((1H-indol-3-yl)methyl)-7-(4-(1-methyl-1H-imidazol-2-yl)pyrimidin-2-yl)-2,7-diazaspiro[4.4]nonan-1-one], the figures for the Ki on human orexin 1 receptor and on human orexin 2 receptor were 923 nM and 489 nM, respectively.
With `COc1ccnc(N2CCC3(CCN(Cc4c[nH]c5ncccc45)C3=O)CC2)n1` [Example 3.15, 8-(4-Methoxy-pyrimidin-2-yl)-2-(1H-pyrrolo[2,3-b]pyridin-3-ylmethyl)-2,8-diaza-spiro[4.5]decan-1-one], at human orexin 1 receptor, the inhibition at 10 µM was 26%. The Ki on human orexin 2 receptor is 637 nM.
With `COCc1cccc(-c2oc(C)nc2CN2CCNC3(CCN(c4nc(C)cc(C#N)n4)CC3)C2=O)c1` [Example 1.31, 2-(4-((5-(3-(Methoxymethyl)phenyl)-2-methyl-oxazol-4-yl)methyl)-5-oxo-1,4,9-triazaspiro[5.5]undecan-9-yl)-6-methylpyrimidine-4-carbonitrile], on human orexin 1 receptor, the inhibition at 10 µM amounted to 38%. In addition, the Ki on human orexin 2 receptor came to 64 nM.
Consider `Cc1cc(C)nc(N2CCC3(CC2)NCCN(Cc2nn(C)cc2-c2cccc(-n4nc(C)cc4C)c2)C3=O)n1` [Example 1.60, 4-((4-(3-(3,5-Dimethyl-1H-pyrazol-1-yl)phenyl)-1-methyl-1H-pyrazol-3-yl)methyl)-9-(4,6-dimethylpyrimidin-2-yl)-1,4,9-triazaspiro[5.5] undecan-5-one], for which the figures for the inhibition at 10 µM on human orexin 1 receptor and at human orexin 2 receptor were 13% and 34%, respectively.
